Laboratory results: ChEMBL document CHEMBL2150873, “Identification of imidazo-pyrrolopyridines as novel and potent JAK1 inhibitors” (J Med Chem, 2012)
One block for each molecule: values may come before it.

Key:
[1] = Lipophilicity, log D of the compound after 1 hr by LC/MS/MS analysis at pH 7.2; type: physicochemical; details: buffer
in vitro = details: human, liver microsomes, t1/2
[2] = Apparent permeability from apical to basal side of MDCK cells at 10 uM; type: ADME, cell-based, Canis lupus familiaris; details: dog
[3] = Half life in Sprague-Dawley rat hepatocytes at 1 uM by LC/MS/MS analysis; type: ADME, cell-based, Liver, Hepatocyte
[4] = Dose normalized clearance in Sprague-Dawley rat at 1 mg/kg, iv; type: ADME, organism-based; parameters: dose 1 mg/kg, route intravenous; details: in vivo, read-out: Dose normalized clearance
Rattus norvegicus [5] = assay: Dose normalized AUC in Sprague-Dawley rat at 5 mg/kg, po; type: ADME, organism-based; parameters: dose 5 mg/kg, route oral; details: in vivo
Rattus norvegicus [6] = assay: Dose normalized Cmax in Sprague-Dawley rat at 5 mg/kg, po; type: ADME, organism-based; parameters: dose 5 mg/kg, route oral; details: in vivo
[7] = Dose normalized volume of distribution at steady state in Sprague-Dawley rat at 1 mg/kg, iv and 5 mg/kg, po; type: ADME, organism-based; details: in vivo, read-out: Vdss/dose
[8] = Dose normalized oral bioavailability in Sprague-Dawley rat at 5 mg/kg; type: ADME, organism-based; details: in vivo, read-out: F/dose
Liver microsomes = details: human

SMILES: COC(=O)N[C@H]1CC[C@H](n2cnc3cnc4[nH]ccc4c32)CC1
logD at 1 h [1]: 1.9
half-life (in vitro): > 600 min

SMILES: CC(C)(C)OC(=O)N[C@@H]1CC[C@@H](n2cnc3cnc4[nH]ccc4c32)C1
logD at 1 h [1]: 2.99
Papp A→B at 10 µM [2]: 11.2 ×10⁻⁶ cm/s
half-life at 1 µM [3]: 132 min
clearance [4]: 140 mL/min/kg
AUC/dose (Rattus norvegicus [5]): 1.3 µM·h
Cmax/dose (Rattus norvegicus [6]): 1.1 µM
Vd [7]: 2.53 L/kg
bioavailability [8]: 73%
t1/2 (Liver microsomes): 5.6 h

SMILES: c1ccc(CN2CCC(n3cnc4cnc5[nH]ccc5c43)CC2)cc1
logD at 1 h [1]: 2.9
Papp A→B at 10 µM [2]: 32.3 ×10⁻⁶ cm/s
half-life at 1 µM [3]: 30 min
clearance [4]: 170 mL/min/kg
Cmax/dose (Rattus norvegicus [6]): 0.04 µM
Vd [7]: 6.39 L/kg
bioavailability [8]: < 1%
half-life (in vitro): 48 min

SMILES: O=S(=O)(c1ccccc1)N1CCC(n2cnc3cnc4[nH]ccc4c32)CC1
half-life (in vitro): 42 min

SMILES: CC1(n2cnc3cnc4[nH]ccc4c32)CCNCC1
half-life (in vitro): > 600 min

SMILES: CC1(n2cnc3cnc4[nH]ccc4c32)CCN(Cc2cncnc2)CC1
half-life (in vitro): 96 min

SMILES: CC1(n2cnc3cnc4[nH]ccc4c32)CCN(S(C)(=O)=O)CC1
logD at 1 h [1]: 1.14
Papp A→B at 10 µM [2]: 2.5 ×10⁻⁶ cm/s
half-life at 1 µM [3]: > 600 min
clearance [4]: 82 mL/min/kg
AUC/dose (Rattus norvegicus [5]): 2.3 µM·h
Cmax/dose (Rattus norvegicus [6]): 0.8 µM
Vd [7]: 2.72 L/kg
bioavailability [8]: 74%
half-life (in vitro): > 600 min

SMILES: CC1(n2cnc3cnc4[nH]ccc4c32)CCN(CC(F)(F)F)CC1
half-life (in vitro): 96 min

SMILES: CC1(n2cnc3cnc4[nH]ccc4c32)CCN(CCC#N)CC1
half-life (in vitro): 138 min

SMILES: CC(C)(C)OC(=O)N[C@H]1CC[C@H](n2cnc3cnc4[nH]ccc4c32)CC1
logD at 1 h [1]: 3.2
half-life (in vitro): 90 min

SMILES: c1cc2c(ncc3ncn([C@H]4CC[C@H](N5CCOCC5)CC4)c32)[nH]1
half-life (in vitro): 408 min

SMILES: c1cc2c(ncc3ncn([C@H]4CC[C@@H](N5CCOCC5)CC4)c32)[nH]1
half-life (in vitro): 222 min

SMILES: CC(C)C(=O)N[C@H]1CC[C@H](n2cnc3cnc4[nH]ccc4c32)CC1
half-life (in vitro): 162 min

SMILES: c1cc2c(ncc3ncn([C@H]4CC[C@H](NCC5CC5)CC4)c32)[nH]1
half-life (in vitro): 282 min

SMILES: N#Cc1cccc(CN[C@H]2CC[C@H](n3cnc4cnc5[nH]ccc5c43)CC2)c1
half-life (in vitro): 48 min

SMILES: CS(=O)(=O)N[C@H]1CC[C@H](n2cnc3cnc4[nH]ccc4c32)CC1
half-life (in vitro): 108 min

SMILES: COC(=O)N(C)[C@H]1CC[C@H](n2cnc3cnc4[nH]ccc4c32)CC1
half-life (in vitro): > 600 min

SMILES: CC(C)(C)OC(=O)N[C@@H]1CC[C@@H](n2cnc3cnc4[nH]ccc4c32)C1 (racemic)
half-life (in vitro): 330 min

SMILES: COC(=O)N[C@@H]1CC[C@@H](n2cnc3cnc4[nH]ccc4c32)C1 (racemic)
logD at 1 h [1]: 1.2
half-life (in vitro): 348 min

SMILES: CC(C)(C)OC(=O)N[C@H]1CC[C@@H](n2cnc3cnc4[nH]ccc4c32)C1 (racemic)
half-life (in vitro): 108 min

The next lines start with the values.

logD at 1 h [1]: 0.39
Papp A→B at 10 µM [2]: 0.3 ×10⁻⁶ cm/s
half-life at 1 µM [3]: > 600 min
clearance [4]: 85 mL/min/kg
AUC/dose (Rattus norvegicus [5]): 0.3 µM·h
Cmax/dose (Rattus norvegicus [6]): 0.05 µM
Vd [7]: 1.87 L/kg
bioavailability [8]: 5%
half-life (in vitro): 84 min
SMILES: N#CCC(=O)N1CCC[C@@H](n2cnc3cnc4[nH]ccc4c32)C1

half-life (in vitro): 240 min
SMILES: c1ncc(CN2CCC(n3cnc4cnc5[nH]ccc5c43)CC2)cn1

half-life (in vitro): 120 min
SMILES: N#CCC(=O)N1CCC(n2cnc3cnc4[nH]ccc4c32)CC1

half-life (in vitro): 84 min
SMILES: O=C(c1ccccc1)N1CCC(n2cnc3cnc4[nH]ccc4c32)CC1

half-life (in vitro): 30 min
SMILES: CC(C)CC(=O)N1CCC(n2cnc3cnc4[nH]ccc4c32)CC1

logD at 1 h [1]: 1.04
Papp A→B at 10 µM [2]: 1.2 ×10⁻⁶ cm/s
half-life at 1 µM [3]: > 600 min
clearance [4]: 45 mL/min/kg
AUC/dose (Rattus norvegicus [5]): 2.3 µM·h
Cmax/dose (Rattus norvegicus [6]): 2.9 µM
Vd [7]: 1.46 L/kg
bioavailability [8]: 36%
half-life (in vitro): 132 min
SMILES: CS(=O)(=O)N1CCC(n2cnc3cnc4[nH]ccc4c32)CC1

half-life (in vitro): 150 min
SMILES: CCN1CCC(n2cnc3cnc4[nH]ccc4c32)CC1

half-life (in vitro): 228 min
SMILES: FC(F)(F)CN1CCC(n2cnc3cnc4[nH]ccc4c32)CC1

logD at 1 h [1]: 1.72
Papp A→B at 10 µM [2]: 8.2 ×10⁻⁶ cm/s
half-life at 1 µM [3]: > 600 min
clearance [4]: 96 mL/min/kg
AUC/dose (Rattus norvegicus [5]): 1.6 µM·h
Cmax/dose (Rattus norvegicus [6]): 1.8 µM
Vd [7]: 2.37 L/kg
bioavailability [8]: 48%
half-life (in vitro): 450 min
SMILES: N#CCCN1CCC(n2cnc3cnc4[nH]ccc4c32)CC1

half-life (in vitro): 90 min
SMILES: CN(C)CC(=O)N1CCC(n2cnc3cnc4[nH]ccc4c32)CC1

half-life (in vitro): 168 min
SMILES: CN1CCC[C@@H]1C(=O)N1CCC(n2cnc3cnc4[nH]ccc4c32)CC1

half-life (in vitro): 282 min
SMILES: CN1CCC[C@H]1C(=O)N1CCC(n2cnc3cnc4[nH]ccc4c32)CC1

half-life (in vitro): 78 min
SMILES: CC(C)N1CCC[C@H]1C(=O)N1CCC(n2cnc3cnc4[nH]ccc4c32)CC1

half-life (in vitro): 210 min
SMILES: CN1CCCC[C@H]1C(=O)N1CCC(n2cnc3cnc4[nH]ccc4c32)CC1

logD at 1 h [1]: -0.44
Papp A→B at 10 µM [2]: 0.2 ×10⁻⁶ cm/s
half-life at 1 µM [3]: > 600 min
clearance [4]: 65 mL/min/kg
AUC/dose (Rattus norvegicus [5]): 0.22 µM·h
Cmax/dose (Rattus norvegicus [6]): 0.02 µM
Vd [7]: 13.9 L/kg
bioavailability [8]: < 1%
half-life (in vitro): 222 min
SMILES: N[C@H]1CC[C@H](n2cnc3cnc4[nH]ccc4c32)CC1

half-life (in vitro): 330 min
SMILES: N[C@H]1CC[C@@H](n2cnc3cnc4[nH]ccc4c32)CC1

logD at 1 h [1]: 0.97
Papp A→B at 10 µM [2]: 1.5 ×10⁻⁶ cm/s
half-life at 1 µM [3]: 588 min
clearance [4]: 120 mL/min/kg
AUC/dose (Rattus norvegicus [5]): 0.7 µM·h
Cmax/dose (Rattus norvegicus [6]): 0.6 µM
Vd [7]: 3.96 L/kg
bioavailability [8]: 28%
half-life (in vitro): 300 min
SMILES: N#CCCN[C@H]1CC[C@H](n2cnc3cnc4[nH]ccc4c32)CC1
